Assay results: PMC10945480 (Journal of Medicinal Chemistry, 2024)
Like-named read-outs stand apart in the source and are kept apart here.

Columns and labels:
A549 cancer cells = experiment: Platelet-enhanced tumor cell proliferation; format: cell-based, human; details: A549 plus platelets, 48 h, 0.5 to 2 μM
Experimental: In order to examine platelet-enhanced cancer cell growth, A549 cancer cells were coincubated with platelets for 48 h.
Figure 5 Inhibitory effects of JUG derivatives 18 and 22 on tumor cell-induced platelet secretion and platelet-enhanced tumor cell proliferation. (a) Washed human platelets were coincubated with A549 cancer cells under the same conditions as described in Figure 4. Secretion of PDGF and ATP were determined with the enzyme-linked immunosorbent assay (ELISA) and bioluminescent assay, respectively. (b) A549 cancer cells were coincubated with washed human platelets at 37 °C and 5% CO2 in a cell culture incubator for 48 h. After washing with PBS, the numbers of viable cancer cells were determined by trypan blue exclusion. Data are mean ± SEM of at least three independent experiments. In (a), *P < 0.05; **P < 0.01; ***P < 0.001 as compared with vehicle control (DMSO). In (b), *P < 0.05; **P < 0.01; ***P < 0.001 as compared with A549 cells plus platelets.
A549 cells (1 × 10^4 cells/well) were seeded in a 96-well plate and coincubated with wash human platelets (1 × 10^7 cells/well) containing with 0.375% plasma for 48 h at 37 °C and 5% CO2 in a cell culture incubator. After washing with phosphate buffered saline, the numbers of viable cancer cells were determined by trypan blue exclusion.

[1] = biological target: purified human recombinant PDI (rPDI) (Homo sapiens, UniProt P07237); experiment: Recombinant PDI reductase activity (Di-E-GSSG assay); details: human recombinant PDI, Di-E-GSSG
Sequence of purified human recombinant PDI (rPDI) (P07237 18-508): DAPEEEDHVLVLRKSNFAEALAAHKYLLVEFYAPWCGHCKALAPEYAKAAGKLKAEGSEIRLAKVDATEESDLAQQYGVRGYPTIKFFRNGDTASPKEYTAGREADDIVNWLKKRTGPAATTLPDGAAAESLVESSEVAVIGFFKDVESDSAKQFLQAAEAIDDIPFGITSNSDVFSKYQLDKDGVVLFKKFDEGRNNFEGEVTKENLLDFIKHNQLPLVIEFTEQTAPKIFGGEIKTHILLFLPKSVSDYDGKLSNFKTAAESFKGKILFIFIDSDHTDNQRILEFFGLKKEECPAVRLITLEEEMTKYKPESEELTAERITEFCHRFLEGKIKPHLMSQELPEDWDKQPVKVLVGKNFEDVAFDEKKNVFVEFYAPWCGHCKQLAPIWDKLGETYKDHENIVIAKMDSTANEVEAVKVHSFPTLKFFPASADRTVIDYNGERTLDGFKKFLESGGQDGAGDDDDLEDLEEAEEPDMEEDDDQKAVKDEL
Experimental: (§4) In this assay, a nonfluorescent substrate, dieosin glutathione disulfide (Di-E-GSSG), was reduced into a fluorescent product eosin-glutathione (E-GSH) by platelet surface PDI in the presence of 5 μM dithiothreitol (DTT).

[2] = test system: human vascular endothelial EA.hy926 cells; experiment: Cell viability, resazurin assay, EA.hy926; details: EA.hy 926, 24 h, read-out: EAhy926 IC50
Experimental: (§5) Cells were maintained in a humidified incubator at 37 °C in 5% CO2, and cell viability was determined with the resazurin assay (Cayman Chemical, USA) after the incubation with compounds for indicated concentrations and times or DMSO as control.[72]

glioma U87 = experiment: Cell viability, resazurin assay, U87; details: Homo sapiens, 24 h, read-out: U87 IC50
Experimental: as §5

breast cancer MDA-MB-231 = experiment: Cell viability, resazurin assay, MDA-MB-231; details: Homo sapiens, MDA-MB-231, 24 h, read-out: MDA-MB-231 IC50
Experimental: as §5

washed human platelets [3] = experiment: U46619-induced platelet aggregation; format: cell-based; details: Platelet; washed human platelets, U46619 (1 μM)
Experimental: (§1) The antiplatelet effects of the JUG derivatives were evaluated by measuring human platelet aggregation, which can be regulated by cell surface PDI. Platelet aggregation was induced with platelet activators U46619 (a mimetic of thromboxane A2) and collagen (binding to GPVI).
(§2) Washed human platelets were prepared from acid citrate dextrose-anticoagulated blood of healthy human volunteers as described previously.[73] The study was approved by the Institutional Review Board of Kaohsiung Medical University, and informed consent was obtained from every volunteer. Platelet aggregation was measured by using a turbidimetric aggregometer (Chrono-Log Co., USA) under stirring conditions (1200 rpm) at 37 °C. The extent of platelet aggregation was measured as the maximal increase of light transmission after the addition of the stimulators U46619 and collagen.[73] In the TCIPA assay, platelet aggregation was induced by A549 (1 × 10^4 cells/mL), MDA-MB-231 (1 × 10^2 cells/mL), or RPMI8226 (1 × 10^5 cells/mL) cancer cells in the presence of 0.375% plasma.[74]

washed human platelets [4] = experiment: Collagen-induced platelet aggregation; format: cell-based; details: Platelet; washed human platelets, collagen (5 μg/mL)
Experimental: as §1, §2

lung cancer A549 = experiment: Cell viability, resazurin assay, A549; details: Homo sapiens, A549, 24 h, read-out: A549 IC50
Experimental: as §5

[5] = test system: washed human platelets coincubated with A549, MDA-MB-231, or RPMI8226 cancer cells; experiment: Tumor cell-induced platelet aggregation (TCIPA); format: cell-based
[6] = test system: washed human platelets coincubated with A549 cancer cells; experiment: Tumor cell-induced platelet secretion (PDGF, ATP); format: cell-based
Experimental: (a) Washed human platelets were coincubated with A549 cancer cells under the same conditions as described in Figure 4. Secretion of PDGF and ATP were determined with the enzyme-linked immunosorbent assay (ELISA) and bioluminescent assay, respectively. (b) A549 cancer cells were coincubated with washed human platelets at 37 °C and 5% CO2 in a cell culture incubator for 48 h. After washing with PBS, the numbers of viable cancer cells were determined by trypan blue exclusion. Data are mean ± SEM of at least three independent experiments.
Washed human platelets were coincubated with cancer cells under the same conditions as described in the TCIPA assay. After a 25 min incubation in the aggregometer, the samples were centrifuged at 13,000g for 1 min. The concentrations of PDGF-BB and ATP in the supernatants were determined using an ELISA kit (Abcam, Cambridge, UK) and an ATP bioluminescent assay kit (Sigma, MO, USA), respectively.[52]

[7] = test system: multiple myeloma RPMI8226; experiment: Cell viability, resazurin assay, RPMI8226; details: for S.I. (EAhy926/RPMI8226), selectivity index: 24 h IC50 ratio; for IC50: Homo sapiens
Experimental: as §5

[8] = Parallel artificial membrane permeability assay (PAMPA); details: 50 μM, 25 ℃, 3 h, verapamil = 100%, ranitidine = 0%
Experimental: 1. Parallel artificial membrane permeability assay (PAMPA). […]
evolution instruments from pION Inc. In the PAMPA assay, a set of sandwich plates consists of a 96-well microtiter donor plate at the bottom and a 96-well filter acceptor plate on the top from […]
The stock solutions of samples were prepared at 10 mM concentrations in DMSO and stored at 0 ℃ before use. Before being added to a 96-well filter plate, the stock solution was diluted first with buffer to achieve a final sample concentration of 50 μM and to reduce the DMSO concentration below 1% (v/v). Each well of the 96-well donor plate was filled with a 200 μL diluted sample solution (50 μM), and the 96-well filter acceptor plate was then wetted with a 5 μL 2% w/v dioleyoylphosphatidylcholine (DOPC) in n-dodecane and subsequently placed on the donor wells.
Immediately, the acceptor wells were filled with 200 μL of buffer solution and the PAMPA plate sandwich was sealed and incubated at 25 ℃ for 3 h. After reaching the permeation time, the PAMPA plate sandwich was separated and transferred to 96-well UV plates respectively. The amounts of drugs in both the donor and acceptor compartments were measured by comparing the experimental spectra with the UV spectrum (220∼400 nm) obtained from reference standards.

ERp57 (PDIA3) = biological target: T1, ERp57 (PDIA3) (Homo sapiens, UniProt P30101); experiment: ERp57 reductase assay (Di-E-GSSG); format: biochemical; details: ERp57 and ERp72 together, fold higher than required to inhibit PDI
T1 sequence (P30101 25-505): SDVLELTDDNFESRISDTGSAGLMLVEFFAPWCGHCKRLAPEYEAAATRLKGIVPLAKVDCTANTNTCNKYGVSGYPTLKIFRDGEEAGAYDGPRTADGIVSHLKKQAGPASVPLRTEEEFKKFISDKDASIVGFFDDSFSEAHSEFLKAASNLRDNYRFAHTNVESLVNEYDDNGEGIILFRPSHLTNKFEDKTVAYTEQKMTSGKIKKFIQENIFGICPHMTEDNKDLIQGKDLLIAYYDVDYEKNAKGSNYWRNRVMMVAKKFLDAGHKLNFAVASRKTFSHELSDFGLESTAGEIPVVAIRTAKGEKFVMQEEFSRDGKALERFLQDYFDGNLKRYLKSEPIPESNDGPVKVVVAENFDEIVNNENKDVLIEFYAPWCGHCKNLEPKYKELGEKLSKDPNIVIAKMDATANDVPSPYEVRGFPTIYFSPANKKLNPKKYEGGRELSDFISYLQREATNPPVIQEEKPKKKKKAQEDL
Text: In addition to PDI, ERp57 (PDIA3) and ERp72 (PDIA4) are two other major members of the PDI family in both platelets and A549 cells.[62],[63]

platelet surface PDI = platelet surface PDI (Homo sapiens, UniProt P07237); experiment: Cell surface PDI reductase activity on intact human platelets (Di-E-GSSG assay); details: read-out: Surface PDI IC50; intact human platelets, Di-E-GSSG, 5 μM DTT
Sequence of platelet surface PDI (P07237 18-508): as the sequence (P07237 18-508) above
Experimental: as §4

[9] = UPLC-MS analysis of compound metabolites in water with or without GSH; format: physicochemical; details: 37 °C, 30 min
Experimental: (§3) GSH is the major cellular nonprotein thiol, which exists within cells at millimolar concentrations (1–8 mM) while is present extracellularly at only a few micromolar.[53] The high concentrations of intracellular GSH thus may compete with the binding of PDI to covalent PDI inhibitors.[54] […] In this assay, the noncovalent PDI inhibitor isoquercetin was used as a negative control.
Compounds (400 μM) were incubated in water (250 μL) with or without GSH (4 mM) at 37 °C for 30 min. The compound mixture was diluted with methanol (250 μL) and used for UPLC-MS analysis Metabolite analysis was performed on an ACQUITY UPLC I-Class/SQ Detector 2 (Waters, Milford, USA). The reverse phase BEH C18 column (100 mm × 2.1 mm, 1.7 μm, Waters) and VanGuard BEH C18 guard column (5 mm × 2.1 mm, 1.7 μm, Waters) were used. All data were acquired by Empower 3. The mobile phase for LC separation was Millipore water (A) and acetonitrile (B), and the program was as follows: 0.00 min 90% A → 0.50 min 90% A → 6.50 min 5% A → 8.50 min 5% A → 8.60 min 90% A → 9.00 min 90% A; at a rate of 0.4 mL/min for 9.00 min with 5 μL per injection. The temperature of the column oven was maintained at 40 °C. Mass spectrometer parameters were set as follows: cone voltage, 40.0 V, for positive/negative ion mode; desolvation temperature, 200 °C; cone gas flow(N2), 1 L/h; and desolvation gas flow (N2), 650 L/h.

Human rPDI = Human rPDI (Homo sapiens, UniProt P07237); experiment: Effect of GSH on rPDI inhibition (Di-E-GSSG assay); format: biochemical; details: 10 μM compound, 1 mM GSH vs 5 μM DTT
Sequence of Human rPDI (P07237 18-508): as the sequence (P07237 18-508) above
Experimental: as §3
Data are mean ± SEM of three independent experiments.

[10] = RPMI-8226, 24 h, read-out: RPMI8226 IC50

SMILES | IC50 ([1]; read-out: PDI IC50, Table 4) | IC50 ([1]; read-out: rPDI IC50, 5 μM DTT) | IC50 [2] | IC50 (glioma U87) | IC50 (breast cancer MDA-MB-231) | IC50 (washed human platelets [3]) | IC50 (washed human platelets [4]) | IC50 (lung cancer A549) | tumor cell-induced increase in extracellular PDGF and ATP (platelet secretion) [6] | S.I. (EAhy926/RPMI8226), selectivity index [7] | IC50 [7, 10] | Permeability (%) [8] | IC50 (platelet surface PDI) | further results
CC(=O)OC[C@H]1O[C@H](OC2=CC(=O)c3cccc(O)c3C2=O)[C@H](OC(C)=O)[C@@H](OC(C)=O)[C@@H]1OC(C)=O [Compound 22, 2-(2,3,4,6-Tetra-α-O-acetylglucopyranosyl)-8-hydroxynaphthalene-1,4-dione] | 0.63 ± 0.12 µM | 0.63 ± 0.12 µM | 5.42 ± 0.05 µM | 3.22 ± 0.37 µM | 4.42 ± 0.98 µM | 1.54 ± 0.02 µM | 0.5 ± 0.08 µM | 8.95 ± 0.23 µM | reduced | 8.2 | 0.66 ± 0.08 µM | 57.45% | 0.62 ± 0.06 µM | platelet-enhanced cancer cell growth (A549 cancer cells): to a lesser extent; prevention of TCIPA ([5]; 2 μM, A549, MDA-MB-231, RPMI8226 cells, in the presence of plasma): significantly prevented TCIPA; IC50 ([7]; RPMI-8226, 72 h, read-out: RPMI8226 IC50, 72 h): 0.048 µM; concentrations inhibiting ERp57 and ERp72 relative to PDI (ERp57 (PDIA3)): 4 to 7 fold
COc1ccc(SC2=C(c3ccc(O)cc3O)C(=O)c3c(O)cccc3C2=O)cc1 [Compound 30, 2-(2,4-Dihydroxyphenyl)-3-((4-methoxyphenyl)thio)-8-hydroxynaphthalene-1,4-dione] | – | 2.27 ± 0.8 µM | 11 ± 0.33 µM | 11.2 ± 1.01 µM | 16 ± 1.35 µM | 1.37 ± 0.03 µM | 5.19 ± 1.22 µM | 17.55 ± 0.06 µM | – | 1.9 | 5.89 ± 0.32 µM | 12.64% | 0.47 ± 0.05 µM | stability in aqueous conditions (UPLC-MS) ([9]; 400 μM in water): remained intact in aqueous conditions; GSH adduct formation after GSH treatment (UPLC-MS) ([9]; 400 μM, GSH 4 mM): only a small amount
O=C1C=CC(=O)c2c(O)cccc21 [JUG (7), 5-hydroxy-1,4-naphthoquinone, reference compound] | 1.1 ± 0.17 µM | 1.1 ± 0.17 µM | 5.57 ± 0.02 µM | 7.45 ± 0.33 µM | 6.15 ± 0.78 µM | 4.45 ± 0.47 µM | 1.18 ± 0.14 µM | 11.9 ± 0.6 µM | – | – | 3.95 ± 0.7 µM | 83.43% | 0.63 ± 0.07 µM | PDI-inhibitory activity in the presence of GSH (Human rPDI): completely lost PDI-inhibitory activity
CCCSc1nc(N[C@@H]2C[C@H]2c2ccc(F)c(F)c2)c2nnn([C@@H]3C[C@H](OCCO)[C@@H](O)[C@H]3O)c2n1 [ticagrelor, reference compound] | – | – | – | – | – | – | – | – | not | – | – | – | – | effect of comparators on TCIPA ([5]; anti-TF antibody 20 μg/mL, hirudin 0.01 μM, aspirin 100 μM, ticagrelor 1 μM): no or little effect
